Results on 14 molecules are retold here after patent US20240239794A1, “PKC-Theta Modulators” (Exscientia AI Limited, priority 2021, published 2024).

Experiment [1] has as its system IL-2 secretion by human effector memory T cells (TEM). Briefly: Effector memory T cells IL-2 release assay. Type of experiment: cell-based. Particulars: T-cell, human CD4+ TEM cells, CD3/CD28 bead stimulation, 24 h. The protocol: Test compound-mediated inhibition of NFκB signalling in T cells was assessed by quantification of the IL-2 secretion by human effector memory T cells (TEM) upon treatment and stimulation. Human TEM cells were isolated from buffy coats of healthy donors obtained from the French blood bank. First, peripheral blood mononuclear cells (PBMC) were purified from buffy coats diluted 1:1 with DPBS (Gibco, cat #14190-094) by Pancoll (PAN BIOTECH, cat #P04-60500) density gradient centrifugation at 400×g for 20 minutes. TEM cells were further enriched by negative immuno-magnetic cell sorting using a human CD4+ Effector Memory T Cell Isolation Kit (Miltenyi, cat #130-094-125) according to the manufacturer's instructions. Aliquots of 3×10E6 purified TEM cells were kept frozen in Cryo-SFM medium (PromoCell, cat #C-29912) in gas phase nitrogen until used. Cell purity was verified by flow cytometry analysis of 200 000 PFA-fixed cells previously labelled with monoclonal antibodies anti-CD4-PerCP-Cy5.5 (BD Pharmigen, cat #332772), anti-CD8-V500 (BD Biosciences, cat #561617), anti-CD14-Pacific Blue (Biolegend, cat #325616), anti-CD45 RA-FITC (Biolegend, cat #304106) and anti-CCR7-APC (in CD4+ Effector Memory T Cell Isolation Kit, Miltenyi, cat #130-094-125).
TEM cells were resuspended in complete RPMI medium composed of: RPMI 1640 (Gibco, cat #31870-025), 10% heat inactivated fetal bovine serum (Sigma, cat #F7524), 2 mM GlutaMAX (Gibco, cat #35050-038), 1 mM sodium pyruvate 100× (Gibco, cat #11360-039), 1% MEM non-essential amino acids solution (Gibco, cat #11140-035) and 100 U/mL penicillin, 100 µg/mL streptomycin (Sigma-Aldrich, cat #11074440001). 5,000 cells per well were plated onto flat clear bottom 384 well plates (Corning, cat #3770). 5,000 Dynabeads Human T-Activator CD3/CD28 (Gibco, cat #11132D) were added to each well for cell stimulation. Finally, 10 doses of test compound, originally prepared in DMSO by serial semi-log step dilution, were also added to cells in triplicate wells. Final DMSO concentration in wells was 0.1% in a total volume of 100 µL complete medium. Plates were incubated for 24 h at 37° C. in 5% CO2 atmosphere. After incubation, cell suspensions were centrifuged at 400×g and culture supernatants were recovered and stored at −80° C. Cell viability was assessed by flow cytometry after staining the cells with Fixable Viability Dye eFluor 780 (Invitrogen, cat #65-0865-14). IL-2 levels were determined in cell supernatants using an HTRF human IL-2 detection kit (Cisbio, cat #62HIL02PEH). IL-2 data at the different compound doses were fitted to a 4-parameter logistic curve to determine IC50 values, corresponding to the compound concentration leading to 50% reduction of the maximal IL-2 levels observed in each experiment. Viability data were analysed similarly to exclude cytotoxicity as a cause of IL-2 decrease (see Table 1).

For experiment [2], the target named is Recombinant human PKC-delta (His-tagged 345-676) (Homo sapiens (Human), UniProt Q05655). Nature of the experiment: PKC-delta inhibition assay (HTRF KinEASE kit), PKC-theta/PKC-delta selectivity. It counts as biochemical. The note with it: ratio; for PKC-theta/PKC-delta selectivity: PKC-theta over PKC-delta, HTRF assays; for PKC-theta/PKC-delta selectivity (binned): binned A to G. The protocol: (§1) PKC-theta and PKC-delta biochemical activities were measured using the PKC-theta HTRF KinEASEkit kit, according to manufacturer's instructions (Cisbio, catalogue number 61ST1PEJ). Briefly, the kinase buffer component of the kit was supplemented with 10 mM MgCl2, 1 mM DTT and 0.1% Tween 20. For the PKC-theta assay, STK substrate and ATP were added to provide a final assay concentration of 525 nM and 6.5 μM, respectively. For the PKC-delta assay, STK substrate and ATP were added to provide a final assay concentration of 243 nM and 5.7 μM, respectively. The streptavidin_XL665 and STK antibody-cryptate detection reagents were mixed according to the manufacturer's instructions. Test compounds were diluted in DMSO in a series of 10 semi-log step doses; 10 nL of each compound dose were dispensed in 384 well plates. Recombinant human PKC-theta (His-tagged 362-706) or PKC-delta (His-tagged 345-676) was diluted into kinase buffer to provide a final assay concentration of 10 ng/ml and added to the test compound for 30 minutes on ice. The reaction was started by addition of the substrate and ATP and incubated at 25° C. for 30 minutes or 20 minutes for the PKC-theta and PKC-delta assays, respectively. The detection reagents were added, and the plate was incubated in the dark for 2 hours. Fluorescence was measured on an Envision 2103 plate reader with optical setup for […] in the HTRF mode. The ratio of acceptor and donor emission signals was calculated for each well. Percent inhibition values were calculated from the HTRF ratios at different doses and fitted to a 4-parameter logistic curve to determine IC50 values (see Table 1).
Chain of Recombinant human PKC-delta (His-tagged 345-676) (Q05655 345-676): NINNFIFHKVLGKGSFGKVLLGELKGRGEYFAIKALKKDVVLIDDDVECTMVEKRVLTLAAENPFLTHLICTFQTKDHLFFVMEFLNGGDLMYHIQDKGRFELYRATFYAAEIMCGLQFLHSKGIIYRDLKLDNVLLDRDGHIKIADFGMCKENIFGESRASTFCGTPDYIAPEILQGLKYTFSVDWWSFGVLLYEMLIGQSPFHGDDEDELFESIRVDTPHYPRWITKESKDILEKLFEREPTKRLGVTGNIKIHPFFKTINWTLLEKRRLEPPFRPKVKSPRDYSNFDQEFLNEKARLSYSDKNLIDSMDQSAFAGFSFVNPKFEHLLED

Experiment [3] addresses Recombinant human PKC-theta (His-tagged 362-706) (Homo sapiens (Human), UniProt Q04759). Nature of the experiment: PKC-theta inhibition assay (HTRF KinEASE kit). It counts as biochemical. The note with it: ATP 6.5 μM. The method, then:
as §1
On the technique in general: In TR-FRET formats the signal depends on donor and acceptor labels being close together.

[4] abbreviates: binned A to G, read-out: PKC-theta IL2 pIC50 (binned) (converted).
Where [5] appears, read: read-out: PKC-theta IL2 pIC50 (converted).
[6] abbreviates: binned A to H, read-out: PKC-theta HTRF pIC50 (binned) (converted).
Where [7] appears, read: read-out: PKC-theta HTRF pIC50 (converted).

Each structure is given as a SMILES string. Where two headings read alike, the source gives them in different places. Where only a bound is given, the exact number is not on record here.

Chain of Recombinant human PKC-theta (His-tagged 362-706) (Q04759 362-706): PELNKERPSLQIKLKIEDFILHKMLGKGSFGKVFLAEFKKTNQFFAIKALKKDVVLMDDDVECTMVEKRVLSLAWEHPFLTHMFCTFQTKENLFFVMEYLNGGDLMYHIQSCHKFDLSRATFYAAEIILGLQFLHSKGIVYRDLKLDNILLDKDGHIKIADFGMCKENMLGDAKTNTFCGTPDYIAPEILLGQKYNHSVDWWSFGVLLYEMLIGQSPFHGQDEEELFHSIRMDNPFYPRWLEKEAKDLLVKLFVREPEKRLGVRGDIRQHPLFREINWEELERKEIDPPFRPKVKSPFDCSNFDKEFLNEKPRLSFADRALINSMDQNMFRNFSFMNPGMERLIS

Take `CC[C@@]1(O)C(=O)Nc2nccc(-c3nn([C@@H]4CCNC[C@@H]4F)c4ccccc34)c21` (single isomer, unassigned) [Example 83]: the IC50 is 31.6 to 100 nM in experiment [1] (setting [4]), 63.1 nM in experiment [1] (setting [5]), 1 to 3.16 nM in experiment [3] (setting [6]) and 1.58 nM in experiment [3] (setting [7]). Further, the PKC-theta/PKC-delta selectivity in experiment [2] is reported as 13. Also, in experiment [2], the “PKC-theta/PKC-delta selectivity (binned)” value is “D (D means a ratio of between 10 and 20)”.

On to `CC[C@]1(O)C(=O)Nc2nccc(-c3nn([C@H]4CCNC[C@H]4F)c4ccccc34)c21` (single isomer, unassigned) [Example 84], for which the IC50 in experiment [1] (setting [4]) is > 1000 nM; in experiment [1] (setting [5]) it was 1260 nM; in experiment [3] (setting [6]) it was 31.6 to 100 nM; in experiment [3] (setting [7]), 31.6 nM. Besides, the PKC-theta/PKC-delta selectivity in experiment [2] worked out at 14. For the same molecule, the “PKC-theta/PKC-delta selectivity (binned)” value in experiment [2] is “D (D means a ratio of between 10 and 20)”.

As for `CC[C@]1(O)C(=O)Nc2nccc(-c3nn([C@@H]4CCNC[C@@H]4F)c4ccccc34)c21` (single isomer, unassigned) [Example 85], the IC50 in experiment [1] (setting [4]) was > 1000 nM; in experiment [1] (setting [5]) it was 1260 nM; in experiment [3] (setting [6]) it was 31.6 to 100 nM; in experiment [3] (setting [7]), 50.1 nM. Besides, the PKC-theta/PKC-delta selectivity in experiment [2] is recorded as 10. The “PKC-theta/PKC-delta selectivity (binned)” value in experiment [2] is “E (E means a ratio of between 5 and 10)”.

Take `CC[C@@]1(OC)C(=O)Nc2nccc(-c3nn(CC4(F)CCNCC4)c4ccccc34)c21` (single isomer, unassigned) [Example 88]: the IC50 was 100 to 316 nM in experiment [1] (setting [4]), 200 nM in experiment [1] (setting [5]), 3.16 to 10 nM in experiment [3] (setting [6]) and 3.98 nM in experiment [3] (setting [7]). The PKC-theta/PKC-delta selectivity in experiment [2] was found to be 14. In addition, in experiment [2], the “PKC-theta/PKC-delta selectivity (binned)” value was “D (D means a ratio of between 10 and 20)”.

In the case of `CC[C@]1(OC)C(=O)Nc2nccc(-c3nn(CC4(F)CCNCC4)c4ccccc34)c21` (single isomer, unassigned) [Example 89], the IC50 in experiment [1] (setting [4]) was 31.6 to 100 nM; in experiment [1] (setting [5]), 79.4 nM; in experiment [3] (setting [6]), 1 to 3.16 nM; in experiment [3] (setting [7]), 2.51 nM. Also, the PKC-theta/PKC-delta selectivity in experiment [2] was found to be 32. Besides, the “PKC-theta/PKC-delta selectivity (binned)” value in experiment [2] was “B (B means a ratio of between 30 and 50)”.

For the molecule `CO[C@]1(C)C(=O)Nc2nccc(-c3nn([C@@H]4CCNC[C@@H]4F)c4ccccc34)c21` (single isomer, unassigned) [Example 90], the IC50 in experiment [1] (setting [4]) was 10 to 31.6 nM; in experiment [1] (setting [5]) it was 15.8 nM; in experiment [3] (setting [6]) it was ≤ 1 nM; in experiment [3] (setting [7]), 1 nM. For the same molecule, the PKC-theta/PKC-delta selectivity in experiment [2] was 11. Further, the “PKC-theta/PKC-delta selectivity (binned)” value in experiment [2] was “D (D means a ratio of between 10 and 20)”.

As for `CO[C@]1(C)C(=O)Nc2nccc(-c3nn([C@H]4CCNC[C@H]4F)c4ccccc34)c21` (single isomer, unassigned) [Example 91], the IC50 is 100 to 316 nM in experiment [1] (setting [4]), 126 nM in experiment [1] (setting [5]), 3.16 to 10 nM in experiment [3] (setting [6]) and 7.94 nM in experiment [3] (setting [7]). Also, the PKC-theta/PKC-delta selectivity in experiment [2] is 19. In addition, the “PKC-theta/PKC-delta selectivity (binned)” value in experiment [2] is “D (D means a ratio of between 10 and 20)”.

In the case of `CO[C@@]1(C)C(=O)Nc2nccc(-c3nn([C@@H]4CCNC[C@@H]4F)c4ccccc34)c21` (single isomer, unassigned) [Example 92], the IC50 is 100 to 316 nM in experiment [1] (setting [4]), 158 nM in experiment [1] (setting [5]), 10 to 31.6 nM in experiment [3] (setting [6]) and 12.6 nM in experiment [3] (setting [7]). Further, the PKC-theta/PKC-delta selectivity in experiment [2] was 15. Besides, the “PKC-theta/PKC-delta selectivity (binned)” value in experiment [2] was “D (D means a ratio of between 10 and 20)”.

On to `CO[C@@]1(C)C(=O)Nc2nccc(-c3nn([C@H]4CCNC[C@H]4F)c4ccccc34)c21` (single isomer, unassigned) [Example 93], for which the IC50 is 31.6 to 100 nM in experiment [1] (setting [4]), 50.1 nM in experiment [1] (setting [5]), 3.16 to 10 nM in experiment [3] (setting [6]) and 3.98 nM in experiment [3] (setting [7]). In addition, the PKC-theta/PKC-delta selectivity in experiment [2] stood at 10. Besides, the “PKC-theta/PKC-delta selectivity (binned)” value in experiment [2] is “E (E means a ratio of between 5 and 10)”.

Turning to `CN[C@@]1(C)C(=O)Nc2nccc(-c3nn(C4(CC#N)CCC4)c4ccccc34)c21` (single isomer, unassigned) [Example 94], the IC50 in experiment [1] (setting [4]) is 100 to 316 nM; in experiment [1] (setting [5]) it was 126 nM; in experiment [3] (setting [6]), 3.16 to 10 nM; in experiment [3] (setting [7]), 3.98 nM. The PKC-theta/PKC-delta selectivity in experiment [2] was determined as 23. In experiment [2], the “PKC-theta/PKC-delta selectivity (binned)” value was “C (C means a ratio of between 20 and 30)”.

Consider `CN[C@]1(C)C(=O)Nc2nccc(-c3nn(C4(CC#N)CCC4)c4ccccc34)c21` (single isomer, unassigned) [Example 95], for which the IC50 is 1 to 3.16 nM in experiment [1] (setting [4]), 1.58 nM in experiment [1] (setting [5]), ≤ 1 nM in experiment [3] (setting [6]) and 0.126 nM in experiment [3] (setting [7]). The PKC-theta/PKC-delta selectivity in experiment [2] is recorded as 25. The “PKC-theta/PKC-delta selectivity (binned)” value in experiment [2] is “C (C means a ratio of between 20 and 30)”.

With `CC[C@@]1(C)C(=O)Nc2nccc(-c3nn([C@@H]4CCNC[C@@H]4F)c4ccc(F)cc34)c21` (single isomer, unassigned) [Example 97], the IC50 in experiment [1] (setting [4]) was 31.6 to 100 nM; in experiment [1] (setting [5]), 39.8 nM; in experiment [3] (setting [6]), 1 to 3.16 nM; in experiment [3] (setting [7]), 2.51 nM. Further, the PKC-theta/PKC-delta selectivity in experiment [2] worked out at 23. The “PKC-theta/PKC-delta selectivity (binned)” value in experiment [2] is “C (C means a ratio of between 20 and 30)”.

Take `CC[C@]1(C)C(=O)Nc2nccc(-c3nn([C@@H]4CCNC[C@@H]4F)c4ccc(F)cc34)c21` (single isomer, unassigned) [Example 98]: the IC50 in experiment [1] (setting [4]) is > 1000 nM; in experiment [1] (setting [5]) it was 1000 nM; in experiment [3] (setting [6]), 10 to 31.6 nM; in experiment [3] (setting [7]), 31.6 nM. For the same molecule, the PKC-theta/PKC-delta selectivity in experiment [2] was 57. The “PKC-theta/PKC-delta selectivity (binned)” value in experiment [2] is “A (A means a ratio of between 50 and 120)”.

`CC[C@@]1(C)C(=O)Nc2nccc(-c3nn([C@H]4CCNC[C@H]4F)c4ccc(F)cc34)c21` (single isomer, unassigned) [Example 99]: the IC50 in experiment [1] (setting [4]) is 316 to 1000 nM; in experiment [1] (setting [5]), 398 nM; in experiment [3] (setting [6]) it was 31.6 to 100 nM; in experiment [3] (setting [7]), 100 nM. Further, the PKC-theta/PKC-delta selectivity in experiment [2] is reported as 105. Also, the “PKC-theta/PKC-delta selectivity (binned)” value in experiment [2] was “A (A means a ratio of between 50 and 120)”.
